Like-named read-outs stand apart in the source and are kept apart here. Where only a bound is given, the exact number is not on record here.

Our source for the IC50 values is patent US20230078764A1 (Yumanity Therapeutics, Inc., priority 2019, published 2023).

For one experiment, the target named is T1, human SCD1 (Homo sapiens, UniProt O00767).
T1 construct: expressed in transfected cells; host or cells: yeast strain with OLE1 deleted, plasmid-borne human SCD1 (selected in SD-Ura)
T1 sequence (O00767 1-359): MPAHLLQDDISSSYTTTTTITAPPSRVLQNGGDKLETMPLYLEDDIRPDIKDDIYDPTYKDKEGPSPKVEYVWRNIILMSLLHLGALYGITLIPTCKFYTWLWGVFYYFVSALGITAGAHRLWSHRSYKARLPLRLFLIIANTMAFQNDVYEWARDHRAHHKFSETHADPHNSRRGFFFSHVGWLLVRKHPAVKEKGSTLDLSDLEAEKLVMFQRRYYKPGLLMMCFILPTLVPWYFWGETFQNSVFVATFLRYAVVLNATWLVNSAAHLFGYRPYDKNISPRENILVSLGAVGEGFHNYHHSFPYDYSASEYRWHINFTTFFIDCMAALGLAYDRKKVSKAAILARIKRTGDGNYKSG
Briefly: Growth inhibition of yeast strain expressing human SCD1 as sole desaturase (OLE1 deleted), OD600 readout. Format: cell-based.

The target of a further experiment is T2, human SCD5 (Homo sapiens, UniProt Q86SK9).
T2 construct: expressed in transfected cells; host or cells: yeast strain with OLE1 deleted, plasmid-borne human SCD5 (selected in SD-Ura)
T2 sequence (Q86SK9 1-330): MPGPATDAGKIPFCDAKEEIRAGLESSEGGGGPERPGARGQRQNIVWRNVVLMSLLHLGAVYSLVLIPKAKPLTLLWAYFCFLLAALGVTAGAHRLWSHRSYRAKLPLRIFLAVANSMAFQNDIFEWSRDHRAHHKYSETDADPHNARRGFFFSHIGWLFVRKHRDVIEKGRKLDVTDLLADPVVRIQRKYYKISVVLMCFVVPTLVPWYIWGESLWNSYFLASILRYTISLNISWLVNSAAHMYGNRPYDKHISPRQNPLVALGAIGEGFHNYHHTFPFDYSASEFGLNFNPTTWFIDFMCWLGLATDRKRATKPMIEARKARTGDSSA
Briefly: Growth inhibition of yeast strain expressing human SCD5 as sole desaturase (OLE1 deleted), OD600 readout. In kind it is cell-based.

[1] abbreviates: yeast strain expressing human SCD1 as sole desaturase, growth (OD600) after 40 h at 30° C., read-out: SCD1 IC50.
[2] abbreviates: yeast strain expressing human SCD5 as sole desaturase, growth (OD600) after 40 h at 30° C., read-out: SCD5 IC50.

By IC50 is commonly meant the concentration at which inhibition is half-maximal. With `Cn1cc(C(=O)Nc2ccc(Cc3cccc(F)c3)cn2)ccc1=O` [Compound 55, N-(5-(3-fluorobenzyl)pyridin-2-yl)-1-methyl-6-oxo-1,6-dihydropyridine-3-carboxamide], the values for the IC50 against human SCD1 (SCD1 IC50) and at human SCD5 (SCD5 IC50) were 1210 nM and 160 nM, respectively.

As to `Cn1cc(C(=O)Nc2ccc(Cc3cc(F)c(F)c(F)c3)cn2)ccc1=O` [Compound 56, 1-methyl-6-oxo-N-(5-(3,4,5-trifluorobenzyl)pyridin-2-yl)-1,6-dihydropyridine-3-carboxamide], the IC50 at human SCD1 (SCD1 IC50) was determined as 20 nM; against human SCD5 (SCD5 IC50) it was 10 nM.

Turning to `Cn1cc(NC(=O)c2ccc(Cc3cccc(Cl)c3)cn2)ccc1=O` [Compound 57, 5-(3-chlorobenzyl)-N-(1-methyl-6-oxo-1,6-dihydropyridin-3-yl)picolinamide], the IC50 on human SCD1 (setting [1]) came to 560 nM; on human SCD5 (setting [2]) it was 10 nM.

Regarding `COc1ccc(Cc2ccc(NC(=O)c3ccc(=O)n(C)c3)nc2)cn1` [Compound 58, N-(5-((6-methoxypyridin-3-yl)methyl)pyridin-2-yl)-1-methyl-6-oxo-1,6-dihydropyridine-3-carboxamide], the results for the IC50 on human SCD1 (setting [1]) and against human SCD5 (SCD5 IC50) were over 45000 nM and 35600 nM, respectively.

On to `Cn1cc(C(=O)Nc2ccc(Cc3cc(F)cc(F)c3)cn2)ccc1=O` [Compound 59, N-(5-(3,5-difluorobenzyl)pyridin-2-yl)-1-methyl-6-oxo-1,6-dihydropyridine-3-carboxamide], for which the results for the IC50 against human SCD1 (SCD1 IC50) and against human SCD5 (SCD5 IC50) were 310 nM and 10 nM, respectively.

In the case of `Cn1cc(C(=O)Nc2ccc(Cc3ccc(F)c(Cl)c3)cn2)ccc1=O` [Compound 60, N-(5-(3-chloro-4-fluorobenzyl)pyridin-2-yl)-1-methyl-6-oxo-1,6-dihydropyridine-3-carboxamide], the IC50 was 4380 nM at human SCD1 (SCD1 IC50) and 650 nM against human SCD5 (SCD5 IC50).

With `Cn1cc(C(=O)Nc2ccc(Cc3cccc(C#N)c3)cn2)ccc1=O` [Compound 61, N-(5-(3-cyanobenzyl)pyridin-2-yl)-1-methyl-6-oxo-1,6-dihydropyridine-3-carboxamide], the IC50 at human SCD1 (SCD1 IC50) was found to be 7520 nM; on human SCD5 (SCD5 IC50), 600 nM.

As to `Cn1cc(C(=O)Nc2ccc(Cc3ccc4c(c3)COC4)cn2)ccc1=O` [Compound 62, N-(5-((1,3-dihydroisobenzofuran-5-yl)methyl)pyridin-2-yl)-1-methyl-6-oxo-1,6-dihydropyridine-3-carboxamide], the IC50 worked out at 2340 nM against human SCD1 (SCD1 IC50) and 2060 nM against human SCD5 (SCD5 IC50).

Regarding `Cn1cc(C(=O)Nc2ccc(Cc3ccc(C(F)(F)F)cc3)cn2)ccc1=O` [Compound 63, 1-methyl-6-oxo-N-(5-(4-(trifluoromethyl)benzyl)pyridin-2-yl)-1,6-dihydropyridine-3-carboxamide], the figures for the IC50 against human SCD1 (SCD1 IC50) and on human SCD5 (SCD5 IC50) were 380 nM and 320 nM, respectively.

Take `Cn1cc(C(=O)Nc2ccc(Cc3ccc(Cl)cc3)cn2)ccc1=O` [Compound 64, N-(5-(4-chlorobenzyl)pyridin-2-yl)-1-methyl-6-oxo-1,6-dihydropyridine-3-carboxamide]: the IC50 on human SCD1 (SCD1 IC50) was 560 nM; against human SCD5 (SCD5 IC50) it was 60 nM.

Regarding `Cn1cc(C(=O)Nc2ccc(CC3CCCCC3)cn2)ccc1=O` [Compound 65, N-(5-(cyclohexylmethyl)pyridin-2-yl)-1-methyl-6-oxo-1,6-dihydropyridine-3-carboxamide], the IC50 was 1210 nM on human SCD1 (SCD1 IC50) and 140 nM against human SCD5 (SCD5 IC50).

For the compound `Cn1cc(C(=O)Nc2ccc(Cc3ccc(F)c(F)c3)cn2)ccc1=O` [Compound 66, N-(5-(3,4-difluorobenzyl)pyridin-2-yl)-1-methyl-6-oxo-1,6-dihydropyridine-3-carboxamide], the IC50 against human SCD1 (SCD1 IC50) was 1440 nM; against human SCD5 (SCD5 IC50), 10 nM.

For `CCn1nc(C(=O)Nc2ccc(Cc3cccc(Cl)c3)cn2)ccc1=O` [Compound 67, N-(5-(3-chlorobenzyl)pyridin-2-yl)-1-ethyl-6-oxo-1,6-dihydropyridazine-3-carboxamide], the values for the IC50 at human SCD1 (setting [1]) and on human SCD5 (setting [2]) were 440 nM and 120 nM, respectively.

In the case of `CCn1nc(C(=O)Nc2ccc(Cc3cccc(F)c3)cn2)ccc1=O` [Compound 68, 1-ethyl-N-(5-(3-fluorobenzyl)pyridin-2-yl)-6-oxo-1,6-dihydropyridazine-3-carboxamide], the values for the IC50 on human SCD1 (setting [1]) and on human SCD5 (setting [2]) were 1650 nM and 260 nM, respectively.

On to `CCn1nc(C(=O)Nc2ccc(Cc3cc(F)cc(C#N)c3)cn2)ccc1=O` [Compound 69, N-(5-(3-cyano-5-fluorobenzyl)pyridin-2-yl)-1-ethyl-6-oxo-1,6-dihydropyridazine-3-carboxamide], for which the values for the IC50 on human SCD1 (setting [1]) and at human SCD5 (setting [2]) were over 45000 nM and 270 nM, respectively.

Regarding `CCn1nc(C(=O)Nc2ccc(Cc3ccc(Cl)c(Cl)c3)cn2)ccc1=O` [Compound 70, N-(5-(3,4-dichlorobenzyl)pyridin-2-yl)-1-ethyl-6-oxo-1,6-dihydropyridazine-3-carboxamide], the half-inhibitory concentration (IC50) at human SCD1 (setting [1]) was determined as 2900 nM; at human SCD5 (setting [2]), 490 nM.

With `CCCn1nc(C(=O)Nc2ccc(Cc3cccc(F)c3)cn2)ccc1=O` [Compound 71, N-(5-(3-fluorobenzyl)pyridin-2-yl)-6-oxo-1-propyl-1,6-dihydropyridazine-3-carboxamide], the IC50 on human SCD1 (setting [1]) is over 45000 nM; on human SCD5 (setting [2]), 3910 nM.

For the compound `CC(C)n1nc(C(=O)Nc2ccc(Cc3cccc(F)c3)cn2)ccc1=O` [Compound 72, N-(5-(3-fluorobenzyl)pyridin-2-yl)-1-isopropyl-6-oxo-1,6-dihydropyridazine-3-carboxamide], the IC50 against human SCD1 (SCD1 IC50) was found to be 4700 nM; on human SCD5 (SCD5 IC50) it was 390 nM.

Take `CC(C)n1nc(C(=O)Nc2ccc(Cc3cccc(Cl)c3)cn2)ccc1=O` [Compound 73, N-(5-(3-chlorobenzyl)pyridin-2-yl)-1-isopropyl-6-oxo-1,6-dihydropyridazine-3-carboxamide]: the IC50 amounted to 8080 nM at human SCD1 (setting [1]) and 170 nM on human SCD5 (setting [2]).

As for `O=C(Nc1ccc(Cc2cc(F)cc(Cl)c2)cn1)c1ccc(=O)n(C2CC2)n1` [Compound 74, N-(5-(3-chloro-5-fluorobenzyl)pyridin-2-yl)-1-cyclopropyl-6-oxo-1,6-dihydropyridazine-3-carboxamide], the IC50 is 250 nM on human SCD1 (setting [1]) and 10 nM on human SCD5 (setting [2]).

Turning to `O=C(Nc1ccc(Cc2cccc(F)c2)cn1)c1ccc(=O)n(C2CC2)n1` [Compound 75, 1-cyclopropyl-N-(5-(3-fluorobenzyl)pyridin-2-yl)-6-oxo-1,6-dihydropyridazine-3-carboxamide], the IC50 on human SCD1 (setting [1]) is 1490 nM; at human SCD5 (setting [2]) it was 10 nM.

For `O=C(Nc1ccc(Cc2ccc(F)c(Cl)c2)cn1)c1ccc(=O)n(C2CC2)n1` [Compound 76, N-(5-(3-chloro-4-fluorobenzyl)pyridin-2-yl)-1-cyclopropyl-6-oxo-1,6-dihydropyridazine-3-carboxamide], the IC50 at human SCD1 (setting [1]) and on human SCD5 (setting [2]) was 10 nM each time.

For `O=C(Nc1ccc(Cc2cccc(F)c2)cn1)c1ccc(=O)n(CC2CC2)n1` [Compound 77, 1-(cyclopropylmethyl)-N-(5-(3-fluorobenzyl)pyridin-2-yl)-6-oxo-1,6-dihydropyridazine-3-carboxamide], the figures for the IC50 at human SCD1 (setting [1]) and at human SCD5 (setting [2]) were over 45000 nM and 6730 nM, respectively.

`CCn1cc(C(=O)Nc2ccc(Cc3cc(F)cc(OC)c3)cn2)ccc1=O` [Compound 78, 1-ethyl-N-(5-(3-fluoro-5-methoxybenzyl)pyridin-2-yl)-6-oxo-1,6-dihydropyridine-3-carboxamide]: the values for the IC50 at human SCD1 (setting [1]) and on human SCD5 (setting [2]) were over 45000 nM and 640 nM, respectively.

As for `CCn1cc(NC(=O)c2ccc(Cc3cc(F)cc(Cl)c3)cn2)ccc1=O` [Compound 79, 5-(3-Chloro-5-fluorobenzyl)-N-(1-ethyl-6-oxo-1,6-dihydropyridin-3-yl)picolinamide], the IC50 on human SCD1 (setting [1]) turned out to be 5190 nM; on human SCD5 (setting [2]) it was 10 nM.

For the compound `CCn1cc(C(=O)Nc2ccc(Cc3ccc(F)cc3)cn2)ccc1=O` [Compound 81, 1-ethyl-N-(5-(4-fluorobenzyl)pyridin-2-yl)-6-oxo-1,6-dihydropyridine-3-carboxamide], the IC50 was over 45000 nM at human SCD1 (setting [1]) and 2420 nM at human SCD5 (setting [2]).

Regarding `CCn1cc(C(=O)Nc2ccc(Cc3ccc(F)c(Cl)c3)cn2)ccc1=O` [Compound 82, N-(5-(3-chloro-4-fluorobenzyl)pyridin-2-yl)-1-ethyl-6-oxo-1,6-dihydropyridine-3-carboxamide], the IC50 on human SCD1 (setting [1]) is over 45000 nM; on human SCD5 (setting [2]) it was 30 nM.

For `CC(C)n1cc(C(=O)Nc2ccc(Cc3cccc(Cl)c3)cn2)ccc1=O` [Compound 83, N-(5-(3-chlorobenzyl)pyridin-2-yl)-1-isopropyl-6-oxo-1,6-dihydropyridine-3-carboxamide], the IC50 at human SCD1 (setting [1]) is over 45000 nM; at human SCD5 (SCD5 IC50), 420 nM.

Turning to `CCn1cc(C(=O)Nc2ccc(Cc3cccc(Cl)c3)cn2)ccc1=O` [Compound 84, N-(5-(3-chlorobenzyl)pyridin-2-yl)-1-ethyl-6-oxo-1,6-dihydropyridine-3-carboxamide], the IC50 at human SCD1 (setting [1]) was found to be 6660 nM; on human SCD5 (setting [2]) it was 370 nM.
